≈ marks a conversion by molar mass, not a printed value. Like-named read-outs stand apart in the source and are kept apart here.
Experiments:
Citrobacter freundii E8 [1] = test: Antibacterial activity (MIC); type: cell-based
Escherichia coli ESS = test: Antibacterial activity (MIC); type: cell-based
[2] = test system: Escherichia coli NCTC 10418; test: Antibacterial activity (MIC); type: cell-based
Escherichia coli 0111 [3] = test: Antibacterial activity (MIC); type: cell-based
[4] = test system: Escherichia coli ATCC 27166; test: Antibacterial activity (MIC); type: cell-based
Klebsiella aerogenes A [5] = test: Antibacterial activity (MIC); type: cell-based
[6] = test system: Salmonella typhimurium CT10; test: Antibacterial activity (MIC); type: cell-based
Shigella sonnei MB11967 = test: Antibacterial activity (MIC); type: cell-based
[7] = test system: Branhamella catarrhalis 1502; test: Antibacterial activity (MIC); type: cell-based
[8] = test system: Bacillus subtilis ATCC 6633; test: Antibacterial activity (MIC); type: cell-based
[9] = test system: Staphylococcus aureus Oxford; test: Antibacterial activity (MIC); type: cell-based
[10] = test system: Streptococcus pneumoniae CN33; test: Antibacterial activity (MIC); type: cell-based
[11] = test system: Streptococcus pyogenes CN10; test: Antibacterial activity (MIC); type: cell-based
[12] = Solution stability of an aqueous solution (uv spectrum); type: physicochemical; settings: aqueous solution (ca 2 mg ml^-1) stored at 5° for 2 months
Citrobacter freundii E8 [13] = test: MIC in a standard test; type: cell-based
Enterobacter cloacoae N1 = test: MIC in a standard test; type: cell-based
Escherichia coli 0111 [14] = test: MIC in a standard test; type: cell-based
Escherichia coli JT39 = test: MIC in a standard test; type: cell-based; settings: standard test; Escherichia coli JT39; read-out: MIC
Klebsiella aerogenes A [15] = test: MIC in a standard test; type: cell-based
Proteus mirabilis C977 = test: MIC in a standard test; type: cell-based
Proteus morganii I580 = test: MIC in a standard test; type: cell-based; settings: Morganella morganii
Proteus rettgeri WM16 = test: MIC in a standard test; type: cell-based; settings: Providencia rettgeri
Proteus vulgaris WO91 = test: MIC in a standard test; type: cell-based
Pseudomonas aeruginosa A = test: MIC in a standard test; type: cell-based
[16] = test system: Salmonella typhimurium CT10; test: MIC in a standard test; type: cell-based; settings: Salmonella enterica
Serratia marcescens US20 = test: MIC in a standard test; type: cell-based
Shigella sonnei MB 11967 = test: MIC in a standard test; type: cell-based; settings: MB11967
Bacillus subtilis A = test: MIC in a standard test; type: cell-based
[17] = test system: Staphylococcus aureus Oxford; test: MIC in a standard test; type: cell-based
[18] = test system: Staphylococcus aureus Russell; test: MIC in a standard test; type: cell-based
[19] = test system: Staphylococcus aureus 1517; test: MIC in a standard test; type: cell-based
Streptococcus faecalis I = test: MIC in a standard test; type: cell-based; settings: Enterococcus faecalis
[20] = test system: Streptococcus pneumoniae CN33; test: MIC in a standard test; type: cell-based
[21] = test system: Streptococcus pyogenes CN10; test: MIC in a standard test; type: cell-based
[22] = Citrobacter freundii, E8, Citrobacter freundii E8, read-out: MIC
[23] = Escherichia coli, NCTC10418, Escherichia coli NCTC 10418, read-out: MIC
[24] = Escherichia coli, 0111, Escherichia coli 0111, read-out: MIC
[25] = Escherichia coli, ATCC27166, Escherichia coli ATCC 27166, read-out: MIC
[26] = Klebsiella aerogenes, read-out: MIC
[27] = Salmonella enterica, TYPHIMURIUM, read-out: MIC
[28] = Shigella sonnei, MB11967, Shigella sonnei MB11967, read-out: MIC
[29] = Bacillus subtilis, ATCC6633, Bacillus subtilis ATCC 6633, read-out: MIC

## CCSC1=C(C(=O)OCc2ccc([N+](=O)[O-])cc2)N2C(=O)CC2C1 (single isomer, unassigned; (+)) [(+), (+) p-Nitrobenzyl 3-ethylthio-7-oxo-1-azabicyclo[3.2.0] hept-2-ene-2-carboxylate]
Citrobacter freundii E8 [1]; Citrobacter freundii E8
  MIC: 25 µg/mL (≈ 71.8 µM)
Escherichia coli ESS
  MIC: 5.0 µg/mL (≈ 14.4 µM)
[2]; Escherichia coli NCTC 10418
  MIC: 25 µg/mL (≈ 71.8 µM)
Escherichia coli 0111 [3]; Escherichia coli 0111
  MIC: 50 µg/mL (≈ 144 µM)
[4]; Escherichia coli ATCC 27166
  MIC: 12.5 µg/mL (≈ 35.9 µM)
Klebsiella aerogenes A [5]
  MIC: 12.5 µg/mL (≈ 35.9 µM)
[6]
  MIC: 50 µg/mL (≈ 144 µM)
Shigella sonnei MB11967; Shigella sonnei MB11967
  MIC: 50 µg/mL (≈ 144 µM)
[7]; Branhamella catarrhalis 1502
  MIC: 0.5 µg/mL (≈ 1.44 µM)
[8]; Bacillus subtilis ATCC 6633
  MIC: 25 µg/mL (≈ 71.8 µM)
[9]
  MIC: >50 µg/mL
[10]; Streptococcus pneumoniae CN33
  MIC: 0.5 µg/mL (≈ 1.44 µM)
[11]; Streptococcus pyogenes CN10
  MIC: 1.2 µg/mL (≈ 3.44 µM)

## CCSC1=C(C(=O)[O-])N2C(=O)C(CC)C2C1.[Na+] (stereo not drawn)
[12]
  solution stability: without deterioration

## CCSC1=C(C(=O)OCc2ccc([N+](=O)[O-])cc2)N2C(=O)CC2C1 (single isomer, unassigned; (-)) [(-), (-) p-Nitrobenzyl 3-ethylthio-7-oxo-1-azabicyclo[3.2.0] hept-2-ene-2-carboxylate]
Citrobacter freundii E8 [1]; [22]
  MIC: > 50 µg/mL
Escherichia coli ESS
  MIC: 25 µg/mL (≈ 71.8 µM)
[2]; [23]
  MIC: > 50 µg/mL
Escherichia coli 0111 [3]; [24]
  MIC: > 50 µg/mL
[4]; [25]
  MIC: 25 µg/mL (≈ 71.8 µM)
Klebsiella aerogenes A [5]; [26]
  MIC: 25 µg/mL (≈ 71.8 µM)
[6]; [27]
  MIC: > 50 µg/mL
Shigella sonnei MB11967; [28]
  MIC: > 50 µg/mL
[7]; Branhamella catarrhalis 1502
  MIC: 2.5 µg/mL (≈ 7.18 µM)
[8]; [29]
  MIC: 50 µg/mL (≈ 144 µM)
[9]; read-out: MIC
  MIC: > 50 µg/mL
[10]; Streptococcus pneumoniae CN33
  MIC: 2.5 µg/mL (≈ 7.18 µM)
[11]; Streptococcus pyogenes CN10
  MIC: 2.5 µg/mL (≈ 7.18 µM)

## CCSC1=C(C(=O)OCc2ccc([N+](=O)[O-])cc2)N2C(=O)CC2C1 (racemic) [(±), p-Nitrobenzyl 3-ethylthio-7-oxo-1-azabicyclo [3,2,0]hept-2-ene-2-carboxylate]
Citrobacter freundii E8 [1]; [22]
  MIC: 50 µg/mL (≈ 144 µM)
Escherichia coli ESS; Escherichia coli, read-out: MIC
  MIC: 12.5 µg/mL (≈ 35.9 µM)
[2]; [23]
  MIC: 50 µg/mL (≈ 144 µM)
Escherichia coli 0111 [3]; [24]
  MIC: > 50 µg/mL
[4]; [25]
  MIC: 12.5 µg/mL (≈ 35.9 µM)
Klebsiella aerogenes A [5]; [26]
  MIC: 25 µg/mL (≈ 71.8 µM)
[6]; [27]
  MIC: 50 µg/mL (≈ 144 µM)
Shigella sonnei MB11967; [28]
  MIC: > 50 µg/mL
[7]; Moraxella catarrhalis, 1502, Branhamella catarrhalis 1502, read-out: MIC
  MIC: 1.2 µg/mL (≈ 3.44 µM)
[8]; [29]
  MIC: 25 µg/mL (≈ 71.8 µM)
[9]; read-out: MIC
  MIC: > 50 µg/mL
[10]; Streptococcus pneumoniae, CN33, Streptococcus pneumoniae CN33, read-out: MIC
  MIC: 1.2 µg/mL (≈ 3.44 µM)
[11]; Streptococcus pyogenes, CN10, Streptococcus pyogenes CN10, read-out: MIC
  MIC: 1.2 µg/mL (≈ 3.44 µM)

## O=C(O)C1=C(SCc2ccccc2)C[C@@H]2CC(=O)N12 [Example 47, Sodium 3-benzylthio-7-oxo-1-azabicyclo[3.2.0]hept-2-ene-2-carboxvlate]
Citrobacter freundii E8 [13]
  MIC: 25 µg/mL
Enterobacter cloacoae N1
  MIC: 12.5 µg/mL
Escherichia coli 0111 [14]
  MIC: 6.2 µg/mL
Escherichia coli JT39
  MIC: 50 µg/mL
Klebsiella aerogenes A [15]
  MIC: 6.2 µg/mL
Proteus mirabilis C977
  MIC: 50 µg/mL
Proteus morganii I580
  MIC: 50 µg/mL
Proteus rettgeri WM16
  MIC: > 50 µg/mL
Proteus vulgaris WO91
  MIC: > 50 µg/mL
Pseudomonas aeruginosa A
  MIC: > 50 µg/mL
[16]
  MIC: 6.2 µg/mL
Serratia marcescens US20
  MIC: 50 µg/mL
Shigella sonnei MB 11967
  MIC: 6.2 µg/mL
Bacillus subtilis A
  MIC: 1.6 µg/mL
[17]
  MIC: 6.2 µg/mL
[18]
  MIC: 6.2 µg/mL
[19]
  MIC: > 50 µg/mL
Streptococcus faecalis I
  MIC: > 50 µg/mL
[20]
  MIC: ≤ 0.2 µg/mL
[21]
  MIC: 1.6 µg/mL

— patent publication EP0008888A1, “Beta-lactam antibacterial compounds, their preparation and pharmaceutical compositions containing them” (BEECHAM GROUP PLC, priority 1978, dated 1980)
